Structures can show the parent of a compound that is named as a salt.

The first series deals with rat liver microsomes (RLM). Nature of the series: Drug interaction screening of 48 drugs on dabrafenib metabolism in RLM. Type of series: in vitro ADME. Particulars: 100 µM. How it is done: The 200 µL incubation system contained 0.1 M Tris-HCl (pH = 7.6), 0.5 mg/mL RLM or HLM, 1 mM NADPH, and dabrafenib. After pre-incubation (37 °C, 5 min), reactions were initiated by adding 1 mM NADPH and terminated after 40 min with 300 µL ice-cold acetonitrile. Carbamazepine (100 ng/mL) was added as the IS. Samples were vortex-mixed (2 min), centrifuged (17,000 × g, 10 min, 4 °C), and supernatants analyzed by UPLC-MS/MS. Hydroxy-dabrafenib concentrations were quantified via UPLC-MS/MS. Reaction velocity (V) was calculated as hydroxy-dabrafenib formation rate (pmoL/min/µg protein).
For drug interaction screening, inhibitors (100 µM final concentration) were screened in the standard incubation system.
The concentrations of dabrafenib and hydroxy-dabrafenib were quantified by UPLC-MS/MS. Chromatographic separation was performed on a Waters Acquity UPLC BEH C18 column (2.1 mm × 50 mm, 1.7 µm particle size) maintained at 40 °C. […] Total run time was 2 min. Detection employed a Waters Xevo TQS triple quadrupole mass spectrometer (Milford, MA, United States) operated in positive-ion multiple reaction monitoring mode.
In the case of `CNCC[C@H](Oc1cccc2ccccc12)c1cccs1` [Duloxetine], the “Relative activity (% of control)” value was 40.82% ± 0.01.

For Troagliptin succinate, the “Relative activity (% of control)” value is on record as 117.88% ± 0.02.

Still in this series, the particulars now being: RLM; inhibitor 100 µM; dabrafenib at RLM Km concentration.
With `O=c1ccc2ccc(OCCCCN3CCN(c4cccc5sccc45)CC3)cc2[nH]1` [Brexpiprazole], the “inhibition of dabrafenib metabolism” value is on record as over 70%.

As to `CCCCc1oc2ccc(NS(C)(=O)=O)cc2c1C(=O)c1ccc(OCCCN(CCCC)CCCC)cc1` [Dronedarone hydrochloride], the “inhibition of dabrafenib metabolism” value was over 70%.

For `CNCCC(Oc1ccc(C(F)(F)F)cc1)c1ccccc1` (centres unmarked) [Fluoxetine], the “inhibition of dabrafenib metabolism” value is on record as over 70%.

As for `Cc1c(OCC(F)(F)F)ccnc1C[S+]([O-])c1nc2ccccc2[nH]1` (centres unmarked) [Lansoprazole], the “inhibition of dabrafenib metabolism” value is recorded as over 70%.

Turning to `Cc1ccc(Sc2ccccc2N2CCNCC2)c(C)c1` [Vortioxetine], the “inhibition of dabrafenib metabolism” value is given as over 70%.

The same series, now with this note: RLM; inhibitor 100 µM; dabrafenib at RLM Km concentration; hydroxy-dabrafenib formation.
Turning to `CC(=O)Nc1ccc(O)cc1` [Acetaminophen], the “Relative activity (% of control)” value is 90.08% ± 0.04.

Turning to `COc1ccc2cccc(CCNC(C)=O)c2c1` [Agomelatine], the “Relative activity (% of control)” value is listed as 36.20% ± 0.08.

In the case of `CN(C)CCC=C1c2ccccc2CCc2ccccc21` [Amitriptyline], the “Relative activity (% of control)” value was 38.88% ± 0.04.

Turning to `O=c1ccc2ccc(OCCCCN3CCN(c4cccc5sccc45)CC3)cc2[nH]1` [Brexpiprazole], the “Relative activity (% of control)” value is recorded as 29.48% ± 0.05.

For the compound `CC(NC(C)(C)C)C(=O)c1cccc(Cl)c1` (centres unmarked) [Bupropion], the “Relative activity (% of control)” value was 30.23% ± 0.06.

For the compound `Cc1ccc(-c2cc(C(F)(F)F)nn2-c2ccc(S(N)(=O)=O)cc2)cc1` [Celecoxib], the “Relative activity (% of control)” value is 33.72% ± 0.13.

For `CN/C(=N/CCSCc1nc[nH]c1C)NC#N` [Cimetidine], the “Relative activity (% of control)” value is on record as 84.61% ± 0.03.

As to `CN(C)CCCC1(c2ccc(F)cc2)OCc2cc(C#N)ccc21` (centres unmarked) [Citalopram], the “Relative activity (% of control)” value was 59.29% ± 0.07.

On to `CN(C)CCCN1c2ccccc2CCc2ccc(Cl)cc21` [Clomipramine], for which the “Relative activity (% of control)” value is listed as 54.39% ± 0.08.

In the case of `C[C@@H]1C[C@H]2[C@@H]3CCC4=CC(=O)C=C[C@]4(C)[C@@]3(F)[C@@H](O)C[C@]2(C)[C@@]1(O)C(=O)CO` [Dexamethasone], the “Relative activity (% of control)” value was 59.84% ± 0.07.

`COc1ccc2c(c1)[C@]13CCCC[C@@H]1[C@H](C2)N(C)CC3` [Dextromethorphan hydrobromide]: the “Relative activity (% of control)” value is 79.28% ± 0.03.

For the compound `O=C(O)Cc1ccccc1Nc1c(Cl)cccc1Cl` [Diclofenac sodium], the “Relative activity (% of control)” value is listed as 69.82% ± 0.04.

For the compound `CN(C)CCOC(c1ccccc1)c1ccccc1` [Diphenhydramine hydrochloride], the “Relative activity (% of control)” value is 90.45% ± 0.11.

Consider `CCCCc1oc2ccc(NS(C)(=O)=O)cc2c1C(=O)c1ccc(OCCCN(CCCC)CCCC)cc1` [Dronedarone hydrochloride], for which the “Relative activity (% of control)” value was 20.07% ± 0.02.

In the case of `CNCCC(Oc1ccc(C(F)(F)F)cc1)c1ccccc1` (centres unmarked) [Fluoxetine], the “Relative activity (% of control)” value was 18.63% ±0.04.

Regarding `CC(C(=O)O)c1ccc(-c2ccccc2)c(F)c1` (centres unmarked) [Flurbiprofen], the “Relative activity (% of control)” value is reported as 59.91% ± 0.03.

In the case of `CCC1=C(C)CN(C(=O)NCCc2ccc(S(=O)(=O)NC(=O)N[C@H]3CC[C@H](C)CC3)cc2)C1=O` [Glimepiride], the “Relative activity (% of control)” value is on record as 100.17% ± 0.01.

On to `Cc1cnc(C(=O)NCCc2ccc(S(=O)(=O)NC(=O)NC3CCCCC3)cc2)cn1` [Glipizide], for which the “Relative activity (% of control)” value is 106.96% ± 0.06.

Consider `COc1ccc(Cl)cc1C(=O)NCCc1ccc(S(=O)(=O)NC(=O)NC2CCCCC2)cc1` [Glybenzcyclamide], for which the “Relative activity (% of control)” value is reported as 78.13% ± 0.03.

With `C[C@]12CCC(=O)C=C1CC[C@@H]1[C@@H]2[C@@H](O)C[C@@]2(C)[C@H]1CC[C@]2(O)C(=O)CO` [Hydrocortisone], the “Relative activity (% of control)” value is recorded as 70.48% ± 0.08.

Regarding `COc1ccc2c(c1)c(CC(=O)O)c(C)n2C(=O)c1ccc(Cl)cc1` [Indomethacin], the “Relative activity (% of control)” value is 60.51% ± 0.004.

Regarding `Cc1c(OCC(F)(F)F)ccnc1C[S+]([O-])c1nc2ccccc2[nH]1` (centres unmarked) [Lansoprazole], the “Relative activity (% of control)” value is 27.68% ± 0.01.

Turning to `CN1C(C(=O)Nc2ccccn2)=C(O)c2sc(Cl)cc2S1(=O)=O` [Lornoxicam], the “Relative activity (% of control)” value is listed as 65.67% ± 0.04.

`CC(C(=O)O)c1ccc(CC2CCCC2=O)cc1` (centres unmarked) [Loxoprofen]: the “Relative activity (% of control)” value is 57.60% ± 0.04.

As to `Cc1cnc(NC(=O)C2=C(O)c3ccccc3S(=O)(=O)N2C)s1` [Meloxicam sodium], the “Relative activity (% of control)” value is 61.62% ± 0.06.

Turning to `CN(C)C(=N)N=C(N)N` [Metformin hydrochloride], the “Relative activity (% of control)” value is given as 109.07% ± 0.01.

For the compound `COCCc1ccc(OCC(O)CNC(C)C)cc1` (centres unmarked) [Metoprolol Tartrate], the “Relative activity (% of control)” value is recorded as 59.44% ± 0.08.

For the compound `CN1CCN2c3ncccc3Cc3ccccc3C2C1` (centres unmarked) [Mirtazapine], the “Relative activity (% of control)” value was 50.53% ±0.001.

Turning to `CC(C)[C@H]1CC[C@H](C(=O)N[C@H](Cc2ccccc2)C(=O)O)CC1` [Nateglinide], the “Relative activity (% of control)” value is listed as 108.55% ± 0.06.

In the case of `CN1CCOC(c2ccccc2)c2ccccc2C1` (centres unmarked) [Nefopam hydrochloride], the “Relative activity (% of control)” value is on record as 52.87% ± 0.15.

Regarding `COc1ccc2[nH]c([S+]([O-])Cc3ncc(C)c(OC)c3C)nc2c1` (centres unmarked) [Omeprazole], the “Relative activity (% of control)” value is listed as 46.24% ±0.04.

With `Cc1nc2n(c(=O)c1CCN1CCC(c3noc4cc(F)ccc34)CC1)CCCC2O` (centres unmarked) [Paliperidone], the “Relative activity (% of control)” value is 101.95% ± 0.03.

As to `CCC(=O)NS(=O)(=O)c1ccc(-c2c(-c3ccccc3)noc2C)cc1` [Parecoxib], the “Relative activity (% of control)” value was 72.34% ± 0.11.

On to `C=C[C@H]1C[N@@]2CC[C@H]1C[C@@H]2[C@@H](O)c1ccnc2ccc(OC)cc12` [Quinidine], for which the “Relative activity (% of control)” value is given as 60.50% ± 0.14.

In the case of `CN(CCOc1ccc(CC2SC(=O)NC2=O)cc1)c1ccccn1` (centres unmarked) [Rosiglitazone maleate], the “Relative activity (% of control)” value is 64.26% ± 0.004.

On to `N#C[C@@H]1C[C@@H]2C[C@@H]2N1C(=O)[C@@H](N)C12CC3CC(CC(O)(C3)C1)C2` [Saxagliptin hydrochloride], for which the “Relative activity (% of control)” value is reported as 114.45% ± 0.02.

As for `CN[C@H]1CC[C@@H](c2ccc(Cl)c(Cl)c2)c2ccccc21` [Sertraline], the “Relative activity (% of control)” value is reported as 29.92% ± 0.05.

With `O=c1n(CCCN2CCN(c3cccc(Cl)c3)CC2)nc2ccccn12` [Trazodone], the “Relative activity (% of control)” value is 49.14% ± 0.01.

Regarding `CN1[C@@H]2CC[C@H]1C[C@@H](OC(=O)c1c[nH]c3ccccc13)C2` [Tropisetron], the “Relative activity (% of control)” value is recorded as 84.28% ± 0.07.

Turning to `COc1ccc(C(CN(C)C)C2(O)CCCCC2)cc1` (centres unmarked) [Venlafaxine], the “Relative activity (% of control)” value is given as 54.22% ± 0.004.

On to `Cc1ccc(Sc2ccccc2N2CCNCC2)c(C)c1` [Vortioxetine], for which the “Relative activity (% of control)” value is 11.14% ±0.001.

Tested on in the next series: not given
Assay: not given
The arrangement: method as in Puszkiel et al., 2019; Balakirouchenane et al., 2021. The following applies: ref Puszkiel et al., 2019; Balakirouchenane et al., 2021; cited from earlier work.
`CC(=O)N1CCN(c2ccc(OCC3COC(Cn4ccnc4)(c4ccc(Cl)cc4Cl)O3)cc2)CC1` (centres unmarked) [ketoconazole]: the “increase of dabrafenib Cmax on ketoconazole coadministration” value is reported as 33% and the “increase of dabrafenib area under curve (AUC) on ketoconazole coadministration” value is 71%.

Source of the values: publication PMC12460146, “Impact of metabolic enzyme activity variability on dabrafenib disposition” (Frontiers in Pharmacology, 2025).
